From BindingDB's records for doi:10.3109/14756360903017122 (Indian Institute of Chemical Technology, 2010)

Biological target: Sucrase-isomaltase, intestinal (Rattus norvegicus, UniProt P23739)
Test: In Vitro α-Glucosidase Inhibitory Assay
Conditions: pH 6.8
Description: Rat intestinal acetone powder in normal saline (100: 1; w/v) was sonicated thoroughly and the supernatant was used as a source of crude intestinal α-glucosidase after centrifugation. In brief, […] of test sample ( 5 mg/mL DMSO solution) was reconstituted in […] of 100 mM phosphate buffer (pH 6.8) in a 96-well microplate and incubated with […] of crude intestinal α-glucosidase for 5 min before […] substrate (5 mM pNPG prepared in same buffer) was added. Release of p-nitrophenol was measured at 405 nm spectrophotometrically (SpectraMax Plus384; Molecular Devices Corp., Sunnyvale, CA, USA) 5 min after incubation withsubstrate. Individual blanks for test samples were prepared to correct background absorbance where substrate was replaced with […] of buffer. The control samplecontained […] of dimethylsulfoxide (DMSO) in place of test sample.

Sequence of Sucrase-isomaltase, intestinal (P23739 1-1013 limits assumed): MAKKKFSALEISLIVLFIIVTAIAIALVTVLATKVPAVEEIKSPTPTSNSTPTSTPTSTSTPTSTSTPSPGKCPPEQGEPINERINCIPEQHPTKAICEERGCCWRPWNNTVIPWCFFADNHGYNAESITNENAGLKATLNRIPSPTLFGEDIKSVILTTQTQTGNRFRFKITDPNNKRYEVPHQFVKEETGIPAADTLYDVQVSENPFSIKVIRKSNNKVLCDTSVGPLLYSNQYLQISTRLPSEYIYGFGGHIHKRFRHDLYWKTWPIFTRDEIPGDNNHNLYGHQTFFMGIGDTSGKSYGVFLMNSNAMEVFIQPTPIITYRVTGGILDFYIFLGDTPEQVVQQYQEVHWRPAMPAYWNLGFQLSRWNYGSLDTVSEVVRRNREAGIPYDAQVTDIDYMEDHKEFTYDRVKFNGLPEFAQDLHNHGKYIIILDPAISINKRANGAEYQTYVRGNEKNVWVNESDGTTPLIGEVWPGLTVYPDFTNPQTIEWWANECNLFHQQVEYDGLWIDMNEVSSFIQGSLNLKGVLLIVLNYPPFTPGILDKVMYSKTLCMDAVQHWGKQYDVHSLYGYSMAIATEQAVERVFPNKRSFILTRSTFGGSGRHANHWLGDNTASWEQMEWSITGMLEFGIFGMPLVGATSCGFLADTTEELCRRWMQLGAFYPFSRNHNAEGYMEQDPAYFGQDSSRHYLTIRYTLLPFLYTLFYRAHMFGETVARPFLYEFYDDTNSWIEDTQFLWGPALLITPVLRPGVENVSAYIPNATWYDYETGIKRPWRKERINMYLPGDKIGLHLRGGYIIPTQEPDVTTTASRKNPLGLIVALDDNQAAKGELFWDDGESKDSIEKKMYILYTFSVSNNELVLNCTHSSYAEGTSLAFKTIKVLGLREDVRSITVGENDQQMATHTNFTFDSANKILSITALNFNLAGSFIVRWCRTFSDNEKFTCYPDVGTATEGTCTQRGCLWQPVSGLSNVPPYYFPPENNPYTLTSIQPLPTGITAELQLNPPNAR
Sequence of Sucrase-isomaltase, intestinal (P23739 1014-1841 limits assumed): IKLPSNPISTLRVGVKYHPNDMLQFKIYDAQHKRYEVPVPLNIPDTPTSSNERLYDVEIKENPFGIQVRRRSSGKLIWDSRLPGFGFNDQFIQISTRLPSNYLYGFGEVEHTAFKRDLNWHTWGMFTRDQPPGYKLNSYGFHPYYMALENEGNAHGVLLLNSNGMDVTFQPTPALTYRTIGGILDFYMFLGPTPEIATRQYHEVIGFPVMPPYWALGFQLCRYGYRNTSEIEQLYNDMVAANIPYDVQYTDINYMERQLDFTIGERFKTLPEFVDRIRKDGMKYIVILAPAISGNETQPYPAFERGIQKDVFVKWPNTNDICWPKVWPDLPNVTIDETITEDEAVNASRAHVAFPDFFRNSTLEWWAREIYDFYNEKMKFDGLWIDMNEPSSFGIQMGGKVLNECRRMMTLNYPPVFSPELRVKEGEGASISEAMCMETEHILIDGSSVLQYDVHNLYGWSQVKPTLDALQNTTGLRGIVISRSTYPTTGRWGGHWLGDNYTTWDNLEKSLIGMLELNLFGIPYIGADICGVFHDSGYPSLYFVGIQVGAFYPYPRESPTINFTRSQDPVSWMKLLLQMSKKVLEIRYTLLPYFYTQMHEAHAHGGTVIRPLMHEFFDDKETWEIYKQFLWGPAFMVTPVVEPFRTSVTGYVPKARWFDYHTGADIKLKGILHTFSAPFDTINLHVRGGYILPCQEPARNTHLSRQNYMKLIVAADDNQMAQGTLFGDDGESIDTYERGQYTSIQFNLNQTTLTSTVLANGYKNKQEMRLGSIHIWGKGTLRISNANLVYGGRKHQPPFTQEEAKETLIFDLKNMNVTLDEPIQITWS

O=[N+]([O-])c1ccc2[nH]c(-c3ccncc3)nc2c1 [6-Nitro-2-(4-pyridyl)-1H-benzo[d]imidazole (3e)]
IC50: 99.4 µM
